Legend:
Experiment in all cases: -log10 GI50 (growth inhibition 50%) (-log10(M)); higher = more potent growth inhibition
SUM44PE = test system: SUM44PE
In short: (§1)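 Dose-response data came from breast cancer cell lines exposed to each compound for 72 hours at nine doses in 1:5 serial dilution, in triplicate, and read by luminescence relative to a time-zero plate. A Gompertz curve fitted by nonlinear least squares gave GI50, the molar concentration for the set level of growth inhibition, reported as its negative logarithm to base 10. Where a value equals the top dose, it carries a < qualifier.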

21PT = test system: 21PT
In short: as §1

CAL120 = test system: CAL120
In short: as §1

CAL148 = test system: CAL148
In short: as §1

CAL851 = test system: CAL851
In short: as §1

EFM192A = test system: EFM192A
In short: as §1

EFM192B = test system: EFM192B
In short: as §1

EFM19 = test system: EFM19
In short: as §1

JIMT1 = test system: JIMT1
In short: as §1

EFM192C = test system: EFM192C
In short: as §1

Row | SMILES | -log10 GI50 (SUM44PE) | -log10 GI50 (21PT) | -log10 GI50 (CAL120) | -log10 GI50 (CAL148) | -log10 GI50 (CAL851) | -log10 GI50 (EFM192A) | -log10 GI50 (EFM192B) | -log10 GI50 (EFM19) | -log10 GI50 (JIMT1) | -log10 GI50 (EFM192C)
1 | CC/C(=C(\c1ccccc1)c1ccc(OCCN(C)C)cc1)c1ccccc1 [Tamoxifen] | 7.03 | – | – | – | – | – | – | – | – | –
2 | Cn1ncc(Cl)c1-c1cc(C(=O)N[C@H](CN)Cc2ccc(F)c(F)c2)oc1Cl | – | 5.03 | 5.13 | 8.06 | 5.12 | 7.53 | 6.63 | 7.42 | 5.74 | –
3 | CCC[C@H](N[C@H]1CCc2cc(F)cc(F)c2C1)C(=O)Nc1cn(C(C)(C)CNCC(C)(C)C)cn1 | – | – | 4.76 | 4.91 | 5.29 | 4.58 | 4.8 | 4.79 | 4.7 | 4.46
4 | CC(=O)Nc1cccc(-n2c(=O)n(C3CC3)c(=O)c3c(Nc4ccc(I)cc4F)n(C)c(=O)c(C)c32)c1 | 6.91 | – | – | – | – | – | – | – | – | –
5 | C=CCNC1=C2C[C@@H](C)C[C@H](OC)[C@H](O)[C@@H](C)/C=C(\C)[C@H](OC(N)=O)[C@@H](OC)/C=C\C=C(/C)C(=O)NC(=CC1=O)C2=O [17-AAG] | 8.84 | – | – | – | – | – | – | – | – | –
6 | CC(=O)NCC(=O)N1[C@@H]2CC[C@H]1c1ccc(Nc3ncc(C(F)(F)F)c(NC4CCC4)n3)cc12 | – | – | 5.76 | 7.04 | 5.04 | 5.09 | 5.28 | 5.63 | 5.41 | 5.07
7 | COc1ccc(-c2cc3c(C)nc(N)nc3n([C@H]3CC[C@H](OCCO)CC3)c2=O)cn1 | – | – | 6.05 | 6.35 | 7.4 | 6.92 | 6.73 | 7.42 | 6.46 | –
8 | CO[C@H]1C[C@@H]2CC[C@@H](C)[C@@](O)(O2)C(=O)C(=O)N2CCCC[C@H]2C(=O)O[C@H]([C@H](C)C[C@@H]2CC[C@@H](O)[C@H](OC)C2)CC(=O)[C@H](C)/C=C(\C)[C@@H](O)[C@@H](OC)C(=O)[C@H](C)C[C@H](C)/C=C/C=C/C=C/1C [Rapamycin] | 9.26 | – | – | – | – | – | – | – | – | –

From the supplement of paper PMC3937590
